We go through seven compounds from patent US5567725A, “Substituted cyclohexanol esters, their use for treating diseases, and pharmaceutical preparations” (Hoechst Aktiengesellschaft, priority 1994, dated 1996).

Structures are written as SMILES.

A word on the IC50: it is the concentration at which inhibition is half-maximal.

In one assay the test system is glucose-6-phosphatase. As to conditions: literature statement; cited from earlier work.
Assay [1] deals with T1, glucose-6-phosphatase system (Rattus norvegicus, UniProt F7EWB7).
T1 construct: from tissue; host or cells: liver microsomes, male Wistar rats
T1 sequence (F7EWB7 1-429): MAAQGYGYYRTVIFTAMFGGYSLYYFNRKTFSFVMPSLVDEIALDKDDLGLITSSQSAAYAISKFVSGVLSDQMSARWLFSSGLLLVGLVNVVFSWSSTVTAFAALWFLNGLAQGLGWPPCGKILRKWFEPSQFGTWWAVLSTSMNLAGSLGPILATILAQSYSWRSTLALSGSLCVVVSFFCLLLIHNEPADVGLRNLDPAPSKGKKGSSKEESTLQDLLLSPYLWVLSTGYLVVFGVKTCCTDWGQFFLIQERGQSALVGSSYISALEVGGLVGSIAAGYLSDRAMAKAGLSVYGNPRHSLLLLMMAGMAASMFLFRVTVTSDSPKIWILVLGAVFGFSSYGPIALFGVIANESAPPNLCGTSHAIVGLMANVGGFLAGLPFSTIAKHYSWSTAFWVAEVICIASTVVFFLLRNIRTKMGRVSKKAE
Kind of assay: enzyme test using liver microsomes: phosphate liberated from glucose-6-phosphate. As to conditions: rat liver microsome fraction; glucose-6-phosphate 1 mmol/l; HEPES pH 7.0; room temperature, 20 minutes. The format is biochemical, male Wistar rats. How it is done:
The effect of the novel compounds on the glucose-6-phosphatase system was investigated in an enzyme test using liver microsomes.
0.1 ml of test mixture contained glucose-6-phosphate (1mmol/l), the test substance, 0.1 mg of microsome fraction and 100 mmol/l HEPES buffer (4-(2-hydroxyethyl)piperazine-1-ethanesulfonic acid), pH 7.0. The reaction was started by adding the enzyme. After proceeding at room temperature for 20 minutes, the reaction was stopped by adding 0.2 ml of phosphate reagent. The sample was incubated at 37° C. for 30 minutes and the absorption (A) of the blue color was then measured at 570 nm.

As for `S=C=Nc1ccccc1C=Cc1ccccc1N=C=S` [2,2'-diisothiocyanatostilbene], the “inhibition of glucose-6-phosphatase (in words)” value (shortened to “inhibition”) in the assay with glucose-6-phosphatase is reported as “non-specific inhibitors”.
Consider `O=C(/C=C(/c1ccccc1)n1cnc2ccccc21)O[C@@H]1C[C@](OC[C@@H]2C[C@@H]2c2ccc(Cl)cc2)(c2nnn[nH]2)C[C@@H](O)[C@H]1O` [Compound 19], for which the IC50 in assay [1] worked out at 0.8 µM.
As to `CC(=O)Oc1ccccc1C=Cc1ccccc1N=C=S` [2-isothiocyanato-2'-acetoxystilbene], in the assay on glucose-6-phosphatase, the “inhibition” value is “non-specific inhibitors”.
For the compound `O=C(CCc1ccc(O)cc1)c1c(O)cc(O)cc1O[C@@H]1O[C@H](CO)[C@@H](O)[C@H](O)[C@H]1O` [phlorrhizin], in the assay with glucose-6-phosphatase, the “inhibition” value was “non-specific inhibitors”.
For `O=C(/C=C(/c1ccccc1)n1cnc2ccccc21)O[C@@H]1C[C@](OC[C@@H]2C[C@@H]2c2ccc(Cl)cc2)(C(=O)NS(=O)(=O)c2ccc3ccccc3c2)C[C@@H](O)[C@H]1O` [Compound 9], in assay [1], the IC50 amounted to 0.3 µM.
As to `O=C(O)c1cc(SSc2ccc([N+](=O)[O-])c(C(=O)O)c2)ccc1[N+](=O)[O-]` [5,5'-dithiobis-2-nitrobenzoic acid], the “inhibition” value with glucose-6-phosphatase was “non-specific inhibitors”.
Take `CS(=O)(=O)NC(=O)C1(OCC2CC2c2ccc(Cl)cc2)CC(O)C(O)C(OC(=O)C=C(c2ccccc2)n2cnc3ccccc32)C1` (stereo not shown) [Compound 4]: the IC50 in assay [1] amounted to 0.02 µM.
